The assay concerns the target T1, Human G288S SLACK (Homo sapiens, UniProt Q5JUK3, G269S).
T1 construct: host or cells: CHO-K1
T1 sequence (Q5JUK3 1-1235 isoform Q5JUK3-3 G288S): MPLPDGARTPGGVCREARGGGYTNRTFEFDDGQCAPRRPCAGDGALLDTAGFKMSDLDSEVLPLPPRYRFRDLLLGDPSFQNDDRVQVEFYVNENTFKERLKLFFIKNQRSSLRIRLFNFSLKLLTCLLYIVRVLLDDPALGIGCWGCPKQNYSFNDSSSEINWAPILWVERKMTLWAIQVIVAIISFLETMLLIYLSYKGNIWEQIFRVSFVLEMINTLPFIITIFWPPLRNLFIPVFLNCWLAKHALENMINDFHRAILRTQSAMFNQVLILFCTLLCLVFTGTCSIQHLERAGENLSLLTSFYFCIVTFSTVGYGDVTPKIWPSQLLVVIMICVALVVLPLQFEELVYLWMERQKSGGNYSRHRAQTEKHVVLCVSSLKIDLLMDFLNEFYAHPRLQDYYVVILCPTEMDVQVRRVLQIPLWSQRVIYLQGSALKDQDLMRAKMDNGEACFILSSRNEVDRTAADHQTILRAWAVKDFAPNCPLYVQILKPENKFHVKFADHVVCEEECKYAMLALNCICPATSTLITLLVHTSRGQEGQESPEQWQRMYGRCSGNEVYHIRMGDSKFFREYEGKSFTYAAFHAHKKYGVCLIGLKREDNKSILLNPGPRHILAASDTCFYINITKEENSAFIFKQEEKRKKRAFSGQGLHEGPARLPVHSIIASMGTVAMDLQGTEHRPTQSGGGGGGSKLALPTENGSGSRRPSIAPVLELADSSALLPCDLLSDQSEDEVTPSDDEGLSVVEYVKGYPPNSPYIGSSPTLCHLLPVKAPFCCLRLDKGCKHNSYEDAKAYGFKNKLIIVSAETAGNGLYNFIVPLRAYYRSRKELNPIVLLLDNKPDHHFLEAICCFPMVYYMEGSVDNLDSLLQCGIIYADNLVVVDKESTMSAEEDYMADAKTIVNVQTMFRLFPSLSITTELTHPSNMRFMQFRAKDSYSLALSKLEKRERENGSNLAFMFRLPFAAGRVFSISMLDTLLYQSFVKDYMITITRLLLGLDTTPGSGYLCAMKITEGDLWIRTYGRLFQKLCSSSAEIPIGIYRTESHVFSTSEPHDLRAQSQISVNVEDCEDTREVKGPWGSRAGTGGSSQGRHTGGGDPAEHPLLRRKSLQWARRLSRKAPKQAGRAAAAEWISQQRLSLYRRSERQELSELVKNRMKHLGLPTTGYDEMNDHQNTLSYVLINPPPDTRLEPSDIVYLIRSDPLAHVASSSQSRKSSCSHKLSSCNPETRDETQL
The assay can be described thus: Whole-cell APC in CHO-K1 cells stably expressing human G288S SLACK. The class given is cell-based. The source says:
Finally, we chose to screen the same two compounds versus mouse SLACK and two clinically relevant GOF SLACK mutants in APC assays utilizing CHO-K1 cells stably expressing these targets (Table 7). Screening versus the mouse homolog was deemed important for evaluating the potential of the series to ultimately lead to a useful in vivo tool via further optimization.
Stably transfected monoclonal HEK293 cell lines expressing SLICK, Maxi-K α1/β3, Maxi-K α1/β4, CaV3.2, GIRK 1/2, KV2.1, KV7.2, NaV1.7, and TASK-1 were generated as previously described. Stably transfected monoclonal HEK293 cell lines expressing hERG were generated as previously described. CHO-K1 cells expressing human SLACK and disease-associated human SLACK mutations, G288S and A934T, were generated by transfecting a PiggyBac TRE mammalian expression vector (VectorBuilder, Chicago, IL, USA) containing KCNT1. FuGENE 6 (Promega, Madison, WI, USA) transfection reagent and protocol, together with Opti-MEM (Thermo Fisher Scientific, Waltham, MA, USA), were utilized according to the manufacturer’s instructions.
Automated patch clamp recording was performed with a SyncroPatch 768 PE system (Nanion, Munich, Germany) as previously described. Whole-cell recordings were performed at room temperature. Cells were harvested by first washing with PBS without Mg^2+ or Ca^2+ (Gibco, Billings, MT, USA) to remove cell culture medium, followed by dissociation with TryPLE (Gibco, Billings, MT, USA). Cells were then resuspended and diluted to 200,000 cells/mL in external solution. External solution contained 105 mM NaCl, 4 mM KCl, 1 mM MgCl2, 5 mM CaCl2, 10 mM HEPES, 40 mM N-Methyl-D-glucamine chloride, titrated to pH 7.4 with NaOH and osmolarity of 300 mOsm/kg; internal solution contained 70 mM NaCl, 70 mM KF, 10 mM KCl, 5 mM EGTA, 5mM HEPES, titrated to a pH 7.2 with KOH and osmolarity of 295 mOsm/kg.
The APC protocol was set as following: Cells were held at […] −80 mV for 100 ms, then a ramp protocol was performed from −100 mV to 80 mV at 0.4 mV/ms, hold the cell at −80 mV for another 100 ms, then steps were performed at −20 mV, 0 mV, +20 mV, +40 mV, and +60 mV for 100 ms of each step. Whole-cell currents were measured at 0 mV and normalized to current after external buffer addition.

With `CC(C)(Oc1ccc(Cl)cc1)C(=O)Nc1cnc(Oc2c(F)cccc2F)nc1` [Analog 40], the “G288S SLACK inhibition, result in words” value (APC, CHO-K1 cells) is “inactive”.
As a reminder, the IC50 is the midpoint of a concentration-inhibition curve. In the case of `CN(c1ccc(C#N)cc1)c1ncc(NC(=O)C(C)(C)Oc2ccc(Cl)cc2)cn1` [Analog 66], under “APC, CHO-K1 cells”, the “G288S SLACK inhibition, result in words” value is “only weakly active”. Where the note is “APC, CHO-K1 cells, Human G288S SLACK”, the IC50 is above 10 µM. Under “Human G288S SLACK, maximum inhibition at 30 µM standardized to VU0606170 (set at 100%)”, this molecule gave an Imax of 40%.

The values are drawn from publication PMC11643494, “Structure–Activity Relationship Studies in a Series of 2-Aryloxy-N-(pyrimidin-5-yl)acetamide Inhibitors of SLACK Potassium Channels” (Molecules, 2024).
